# Test results published in patent US20240116985A1, “STAPLED PEPTIDES AND METHODS THEREOF” (priority 2020, published 2024).
# Where two headings read alike, the source gives them in different places.
# Columns and labels:
# [1] = biological target: T1, full-length beta-Catenin (Uniprot ID P35222) (Homo sapiens, UniProt P35222); experiment: Fluorescence polarization IC50 (beta-catenin / 5FAM-TCF4 10-53 competition); type: binding
# T1 construct: 10 nM full-length beta-Catenin (Uniprot ID P35222)
# T1 sequence (P35222 1-781): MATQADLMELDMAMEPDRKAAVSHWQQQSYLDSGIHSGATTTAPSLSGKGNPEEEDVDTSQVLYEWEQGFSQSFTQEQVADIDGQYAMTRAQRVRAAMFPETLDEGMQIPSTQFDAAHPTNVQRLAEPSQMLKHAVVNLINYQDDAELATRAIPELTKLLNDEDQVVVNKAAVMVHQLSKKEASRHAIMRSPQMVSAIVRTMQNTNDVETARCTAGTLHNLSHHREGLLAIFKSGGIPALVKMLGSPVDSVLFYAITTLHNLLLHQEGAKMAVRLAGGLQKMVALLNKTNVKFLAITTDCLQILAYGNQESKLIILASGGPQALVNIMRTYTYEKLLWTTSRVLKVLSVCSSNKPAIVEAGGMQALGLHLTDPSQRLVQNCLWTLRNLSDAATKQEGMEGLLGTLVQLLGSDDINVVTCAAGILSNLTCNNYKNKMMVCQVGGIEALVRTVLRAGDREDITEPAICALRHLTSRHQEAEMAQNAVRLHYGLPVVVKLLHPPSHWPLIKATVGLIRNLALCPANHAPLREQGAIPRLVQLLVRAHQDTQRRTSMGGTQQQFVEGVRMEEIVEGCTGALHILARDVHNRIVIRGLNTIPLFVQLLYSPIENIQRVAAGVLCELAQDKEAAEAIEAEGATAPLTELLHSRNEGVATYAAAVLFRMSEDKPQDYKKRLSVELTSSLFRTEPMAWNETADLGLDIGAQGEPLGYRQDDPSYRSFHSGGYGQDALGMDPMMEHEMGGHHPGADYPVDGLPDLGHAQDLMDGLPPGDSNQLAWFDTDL
# [2] = CHI Log D procedure; type: physicochemical; settings: for CHI Log D: pH 7.4; for chromatographic logD: pH 7.4, CHI Log D
# [3] = Solubility in PBS; type: physicochemical
# Summary of the method: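 PBS sample ultracentrifuged; supernatant run on HPLC vs. 50 μM peptide in DMSO standard. Solubility = (PBS peak area / DMSO peak area) × 50 uM.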
# [4] = fluorescence polarization, read-out: beta-Catenin FP IC50
smiles,measurement,setting,value
"CC(=O)N1CCC[C@]12CC=CCCCC1(CCCC=CCCCCCC[C@@](C)(C(=O)N[C@@H](Cc3ccccc3)C(=O)N[C@@H](Cc3csc4ccccc34)C(=O)N[C@@H](CCC(N)=O)C(N)=O)NC(=O)[C@H](CCC(N)=O)NC(=O)[C@H](Cc3cccs3)NC(=O)[C@H](C)NC(=O)[C@H](C)NC(=O)[C@H](CCC(=O)O)NC(=O)[C@H](CC(=O)O)NC1=O)NC(=O)[C@H](C)NC(=O)[C@H](CC(=O)O)NC2=O (stereo partly drawn) [I-487, Ac-PL3-Asp-Ala-B5-Asp-Glu-Ala-Ala-2Thi-Gln-S8-Phe-BztA-Gln-NH2]",IC50,[1]; [4],45 nM
same,IC50,[1]; read-out: FP EC50,45 nM
same,CHI Log D,[2],1.99
same,Solubility,[3],44 µM
"CC[C@H](C)[C@@H]1NC(=O)[C@H](CC(=O)O)NC(=O)[C@]2(CC=CCCCC3(CCCC=CCCCCCC[C@@](C)(C(=O)N[C@@H](Cc4ccccc4)C(=O)N[C@@H](Cc4csc5ccccc45)C(=O)N[C@@H](Cc4c[nH]cn4)C(N)=O)NC(=O)[C@H](CCC(N)=O)NC(=O)[C@H](Cc4cccs4)NC(=O)[C@H](C)NC(=O)[C@H](C)NC(=O)[C@H](CCC(=O)O)NC(=O)[C@H](CC(=O)O)NC3=O)NC1=O)CCCN2C(C)=O (stereo partly drawn) [I-488, Ac-PL3-Asp-Ile-B5-Asp-Glu-Ala-Ala-2Thi-Gln-S8-Phe-BztA-His-NH2]",IC50,[1]; [4],43 nM
same,chromatographic logD,[2],2.4
same,Solubility,[3]; Solubility (uM),30 µM
"CC[C@H](C)[C@@H]1NC(=O)[C@H](CC(=O)O)NC(=O)[C@]2(CC=CCCCC3(CCCC=CCCCCCC[C@@](C)(C(=O)N[C@@H](Cc4ccccc4)C(=O)N[C@@H](Cc4csc5ccccc45)C(=O)N[C@@H](Cc4c[nH]cn4)C(N)=O)NC(=O)[C@H](CCC(N)=O)NC(=O)[C@H](Cc4cccs4)NC(=O)[C@H](C)NC(=O)[C@H](C)NC(=O)[C@H](CC(=O)O)NC(=O)[C@H](CC(=O)O)NC3=O)NC1=O)CCCN2C(C)=O (stereo partly drawn) [I-489, Ac-PL3-Asp-Ile-B5-Asp-Asp-Ala-Ala-2Thi-Gln-S8-Phe-BztA-His-NH2]",IC50,[1]; [4],57 nM
same,chromatographic logD,[2],2.34
same,Solubility,[3]; Solubility (uM),36 µM
"CC(=O)N1CCC[C@]12CC=CCCCC1(CCCC=CCCCCCC[C@@](C)(C(=O)N[C@@H](Cc3ccccc3)C(=O)N[C@@H](Cc3csc4ccccc34)C(=O)N[C@@H](Cc3ccco3)C(N)=O)NC(=O)[C@H](CCC(N)=O)NC(=O)[C@H](Cc3ccccc3)NC(=O)[C@H](C)NC(=O)[C@H](C)NC(=O)[C@H](CCC(=O)O)NC(=O)[C@H](CC(=O)O)NC1=O)NC(=O)[C@H](C)NC(=O)[C@H](CC(=O)O)NC2=O (stereo partly drawn) [I-490, Ac-PL3-Asp-Ala-B5-Asp-Glu-Ala-Ala-Phe-Gln-S8-Phe-BztA-2FurA-NH2]",IC50,[1]; [4],88 nM
same,chromatographic logD,[2],2.21
same,Solubility,[3],50 µM
"CC(=O)N1CCC[C@]12CC=CCCCC1(CCCC=CCCCCCC[C@@](C)(C(=O)N[C@@H](Cc3ccccc3)C(=O)N[C@@H](Cc3csc4ccccc34)C(=O)N[C@@H](CCO)C(N)=O)NC(=O)[C@H](CCC(N)=O)NC(=O)[C@H](Cc3ccccc3)NC(=O)[C@H](C)NC(=O)[C@H](C)NC(=O)[C@H](CCC(=O)O)NC(=O)[C@H](CC(=O)O)NC1=O)NC(=O)[C@H](C)NC(=O)[C@H](CC(=O)O)NC2=O (stereo partly drawn) [I-491, Ac-PL3-Asp-Ala-B5-Asp-Glu-Ala-Ala-Phe-Gln-S8-Phe-BztA-Hse-NH2]",IC50,[1]; [4],153 nM
same,IC50,[1]; read-out: FP EC50,153 nM
same,CHI Log D,[2],2.023
same,Solubility,[3],39 µM
"CC(=O)N1CCC[C@]12CC=CCCCC1(CCCC=CCCCCCC[C@@](C)(C(=O)N[C@@H](Cc3ccccc3)C(=O)N[C@@H](Cc3csc4ccccc34)C(=O)N[C@@H](CCO)C(N)=O)NC(=O)[C@H](CCC(N)=O)NC(=O)[C@H](Cc3ccccc3)NC(=O)[C@H](C)NC(=O)[C@H](C)NC(=O)[C@H](CCC(=O)O)NC(=O)[C@H](CC(=O)O)NC1=O)NC(=O)[C@H](C)NC(=O)[C@H](CC(=O)O)NC2=O (stereo partly drawn) [I-492, Ac-PL3-Asp-Ala-B5-Asp-Glu-Ala-Ala-Phe-Gln-S8-Phe-BztA-Hse-NH2]",IC50,[1]; [4],53 nM
same,IC50,[1]; read-out: FP EC50,53 nM
same,CHI Log D,[2],2.052
same,Solubility,[3],49 µM
"CC(=O)N1CCC[C@]12CC=CCCCC1(CCCC=CCCCCCC[C@@](C)(C(=O)N[C@@H](Cc3ccccc3)C(=O)N[C@@H](Cc3csc4ccccc34)C(=O)N[C@H](CO)C(N)=O)NC(=O)[C@H](CCC(N)=O)NC(=O)[C@H](Cc3ccccc3)NC(=O)[C@H](C)NC(=O)[C@H](C)NC(=O)[C@H](CCC(=O)O)NC(=O)[C@H](CC(=O)O)NC1=O)NC(=O)[C@H](C)NC(=O)[C@H](CC(=O)O)NC2=O (stereo partly drawn) [I-493, Ac-PL3-Asp-Ala-B5-Asp-Glu-Ala-Ala-Phe-Gln-S8-Phe-BztA-DSer-NH2]",IC50,[1]; [4],88 nM
same,chromatographic logD,[2],2.2
same,Solubility,[3],50 µM
"CC(=O)N1CCC[C@]12CC=CCCCC1(CCCC=CCCCCCC[C@@](C)(C(=O)N[C@@H](Cc3ccccc3)C(=O)N[C@@H](Cc3csc4ccccc34)C(=O)N[C@H](CCC(N)=O)C(N)=O)NC(=O)[C@H](CCC(N)=O)NC(=O)[C@H](Cc3ccccc3)NC(=O)[C@H](C)NC(=O)[C@H](C)NC(=O)[C@H](CCC(=O)O)NC(=O)[C@H](CC(=O)O)NC1=O)NC(=O)[C@H](C)NC(=O)[C@H](CC(=O)O)NC2=O (stereo partly drawn) [I-494, Ac-PL3-Asp-Ala-B5-Asp-Glu-Ala-Ala-Phe-Gln-S8-Phe-BztA-DGIn-NH2]",IC50,[1]; [4],82 nM
same,chromatographic logD,[2],2.05
same,Solubility,[3]; Solubility (uM),44 µM
"CC(=O)N1CCC[C@]12CC=CCCCC1(CCCC=CCCCCCC[C@@](C)(C(=O)N[C@@H](Cc3ccccc3)C(=O)N[C@@H](Cc3csc4ccccc34)C(=O)N[C@@H](Cc3c[nH]cn3)C(N)=O)NC(=O)[C@H](CCC(N)=O)NC(=O)[C@H](Cc3ccccc3)NC(=O)[C@H](C)NC(=O)[C@H](C)NC(=O)[C@H](CN(CC(=O)O)CC(F)(F)F)NC(=O)[C@H](CC(=O)O)NC1=O)NC(=O)[C@H](C)NC(=O)[C@H](CC(=O)O)NC2=O (stereo partly drawn) [I-499, Ac-PL3-Asp-Ala-B5-Asp-TfeGA-Ala-Ala-Phe-Gln-S8-Phe-BztA-His-NH2]",IC50,[1]; [4],123 nM
same,chromatographic logD,[2],2.17
same,Solubility,[3]; Solubility (uM),48 µM
"CC[C@H](C)[C@@H]1NC(=O)[C@H](CC(=O)O)NC(=O)[C@]2(CC=CCCCC3(CCCC=CCCCCCC[C@@](C)(C(=O)N[C@@H](Cc4ccccc4)C(=O)N[C@@H](Cc4csc5ccccc45)C(=O)N[C@@H](Cc4c[nH]cn4)C(N)=O)NC(=O)[C@H](CCC(N)=O)NC(=O)[C@H](Cc4ccccc4)NC(=O)[C@H](C)NC(=O)[C@H](C)NC(=O)[C@H](CN(CC(=O)O)CC(F)(F)F)NC(=O)[C@H](CC(=O)O)NC3=O)NC1=O)CCCN2C(C)=O (stereo partly drawn) [I-500, Ac-PL3-Asp-Ile-B5-Asp-TfeGA-Ala-Ala-Phe-Gln-S8-Phe-BztA-His-NH2]",IC50,[1]; [4],176 nM
same,chromatographic logD,[2],2.63
same,Solubility,[3]; Solubility (uM),28 µM
"CC(=O)N1CCC[C@]12CC=CCCCC1(CCCC=CCCCCCC[C@@](C)(C(=O)N[C@@H](Cc3ccccc3)C(=O)N[C@@H](Cc3csc4ccccc34)C(=O)N[C@@H](CCC(N)=O)C(N)=O)NC(=O)[C@H](CCC(N)=O)NC(=O)[C@H](Cc3ccccc3)NC(=O)[C@H](C)NC(=O)[C@H](C)NC(=O)[C@H](CCC(=O)O)NC(=O)[C@H](CC(=O)O)NC1=O)NC(=O)[C@H](CC(F)(F)F)NC(=O)[C@H](CC(=O)O)NC2=O (stereo partly drawn) [I-501, Ac-PL3-Asp-F3CA-B5-Asp-Glu-Ala-Ala-Phe-Gln-S8-Phe-BztA-Gln-NH2]",IC50,[1]; [4],94 nM
same,IC50,[1]; read-out: FP EC50,94 nM
same,CHI Log D,[2],2.138
same,Solubility,[3],49 µM
"CC(=O)N1CCC[C@]12CC=CCCCC1(CCCC=CCCCCCC[C@@](C)(C(=O)N[C@@H](Cc3ccccc3)C(=O)N[C@@H](Cc3csc4ccccc34)C(=O)N[C@@H](CCC(N)=O)C(N)=O)NC(=O)[C@H](CCC(N)=O)NC(=O)[C@H](Cc3ccccc3)NC(=O)[C@H](C)NC(=O)[C@H](C)NC(=O)[C@H](CCC(=O)O)NC(=O)[C@H](CC(=O)O)NC1=O)NC(=O)[C@H](CC(F)(F)F)NC(=O)[C@H](CC(=O)O)NC2=O (stereo partly drawn) [I-502, Ac-PL3-Asp-F3CA-B5-Asp-Glu-Ala-Ala-Phe-Gln-S8-Phe-BztA-Gln-NH2]",IC50,[1]; [4],55 nM
same,IC50,[1]; read-out: FP EC50,55 nM
same,CHI Log D,[2],2.171
same,Solubility,[3],50 µM
